According to patent publication US6737383B1, “Herbicidal oxadiazolidines” (priority 1999, dated 2004):

Legend:
Settings in all cases: Preemergence, 0 to 100 scale
guineagrass = assay: Test D guineagrass; type: in vivo, Panicum maximum
How it was run: (§1)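 Each weed species is planted in its own pot or compartment; preemergence doses go on the sandy loam surface within a day. The formulation is a surfactant-containing, non-phytotoxic solvent blend. Ratings come from visual comparison with untreated controls 14 to 21 days later, where 100 means complete control.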

common pursiane = assay: Test D common purslane; type: in vivo, Portulaca oleracea
How it was run: as §1

Green foxtail = assay: Test D green foxtail; type: in vivo
From the text: Seeds, tubers, or plant parts of Alexandergrass (Brachiaria plantaginea), bermuda-grass (Cynodon dactylon), common pursiane (Portulaca oleracea), common ragweed (Ambrosia elatior), common groundsel (Senecio vulgaris), dallisgrass (Paspalum dilatatum), goosegrass (Eleusine indica), guineagrass (Panicum maximum), itchgrass (Rottboellia exaltata), Johnson grass (Sorghum halepense), large crabgrass (Digitaria sanguinalis), pitted morningglory (Ipomoea lacunosa), purple nutsedge (Cyperus rotundus), sandbur (Cenchrus echinatus), sourgrass (Trichachne insularis), Spanishneedles (Bidens bipinnata), surinam grass (Brachiaria decumbens) and tall mallow (Malva sylvestris) were planted into greenhouse pots of flats containing greenhouse planting medium. Plant species were grown in separate pots or individual compartments. Preemergence applications were made within one day of planting the seed or plant part.
Test chemicals were formulated in a non-phytotoxic solvent mixture which included a surfactant and applied preemergence to the surface of the pot containing seeds in a sandy loam soil. Untreated control pots and treated pots were placed in the greenhouse for growth and visually evaluated for injury 14 to 21 days after herbicide application. Plant response ratings, summarized in Table C, are based on a 0 to 100 scale where 0 is no injury and 100 is complete control. A dash (−) response means no test result.

surinam grass = assay: Test D surinam grass; type: in vivo, Brachiaria decumbens
How it was run: as §1

pitted morningglory = assay: Test D pitted morningglory; type: in vivo, Ipomoea lacunosa
How it was run: as §1

Alexandergrass = assay: Test D Alexandergrass; type: in vivo, Brachiaria plantaginea
How it was run: as §1

goosegrass = assay: Test D goosegrass; type: in vivo, Eleusine indica
How it was run: as §1

purple nutsedge = assay: Test D purple nutsedge; type: in vivo, Cyperus rotundus
How it was run: as §1

common ragweed = assay: Test D common ragweed; type: in vivo, Ambrosia elatior
How it was run: as §1

tall mallow = assay: Test D tall mallow; type: in vivo, Malva sylvestris
How it was run: as §1

common groundsel = assay: Test D common groundsel; type: in vivo, Senecio vulgaris
How it was run: as §1

dallisgrass = assay: Test D dallisgrass; type: in vivo, Paspalum dilatatum
How it was run: as §1

Spanishneedles = assay: Test D Spanishneedles; type: in vivo, Bidens bipinnata
How it was run: as §1

Johnson grass = assay: Test D Johnson grass; type: in vivo, Sorghum halepense
How it was run: as §1

large crabgrass = assay: Test D large crabgrass; type: in vivo, Digitaria sanguinalis
How it was run: as §1

bermuda-grass = assay: Test D bermudagrass; type: in vivo, Cynodon dactylon
How it was run: as §1

sandbur = assay: Test D sandbur; type: in vivo, Cenchrus echinatus
How it was run: as §1

itchgrass = assay: Test D itchgrass; type: in vivo, Rottboellia exaltata
How it was run: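 Scoring used a 0–100 visual injury scale, with 0 meaning no effect and 100 complete control, assessed 14–21 days after application alongside untreated pots. Preemergence treatments went onto sandy loam surfaces of separately potted seeds within a day of sowing.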

[1] = Rate 16 g/ha, 0 no injury, 100 complete control
[2] = Rate 32 g/ha, 0 no injury, 100 complete control
[3] = Rate 64 g/ha, 0 no injury, 100 complete control
[4] = Rate 125 g/ha, 0 no injury, 100 complete control

C=CCn1c(=O)on(C(=O)N(c2ccc(Cl)cc2)C(C)C)c1=O [Compound 105]
Plant response rating, Guineagrass (guineagrass; [1]): 40
Plant response rating, Guineagrass (guineagrass; [2]): 85
Plant response rating, Guineagrass (guineagrass; [3]): 98
Plant response rating, Guineagrass (guineagrass; [4]): 98
Plant response rating, Guineagrass (guineagrass; Rate 250 g/ha): 100
Plant response rating, Guineagrass (guineagrass; Rate 500 g/ha): 100
Plant response rating, C. purslane (common pursiane; [1]): 0
Plant response rating, C. purslane (common pursiane; [2]): 0
Plant response rating, C. purslane (common pursiane; [3]): 0
Plant response rating, C. purslane (common pursiane; [4]): 0
Plant response rating, C. purslane (common pursiane; Rate 250 g/ha): 0
Plant response rating, C. purslane (common pursiane; Rate 500 g/ha): 0
Plant response rating, Green foxtail (Green foxtail; Rate 250 g/ha): 100
Plant response rating, Green foxtail (Green foxtail; Rate 500 g/ha): 100
Plant response rating, Surinam grass (surinam grass; [1]): 0
Plant response rating, Surinam grass (surinam grass; [2]): 0
Surinam grass plant response rating (surinam grass; [3]): 0
Surinam grass plant response rating (surinam grass; [4]): 40
Plant response rating, Surinam grass (surinam grass; Rate 250 g/ha): 98
Plant response rating, Surinam grass (surinam grass; Rate 500 g/ha): 100
Plant response rating, P. morninglory (pitted morningglory; [1]): 0
Plant response rating, P. morninglory (pitted morningglory; [2]): 0
Plant response rating, P. morninglory (pitted morningglory; [3]): 0
Plant response rating, P. morninglory (pitted morningglory; [4]): 0
Plant response rating, P. morninglory (pitted morningglory; Rate 250 g/ha): 0
Plant response rating, P. morninglory (pitted morningglory; Rate 500 g/ha): 0
Plant response rating, Alexandergrass (Alexandergrass; [1]): 0
Plant response rating, Alexandergrass (Alexandergrass; [2]): 30
Plant response rating, Alexandergrass (Alexandergrass; [3]): 85
Plant response rating, Alexandergrass (Alexandergrass; [4]): 98
Plant response rating, Alexandergrass (Alexandergrass; Rate 250 g/ha): 98
Plant response rating, Alexandergrass (Alexandergrass; Rate 500 g/ha): 100
Plant response rating, Goosegrass (goosegrass; [1]): 85
Plant response rating, Goosegrass (goosegrass; [2]): 98
Plant response rating, Goosegrass (goosegrass; [3]): 98
Plant response rating, Goosegrass (goosegrass; [4]): 98
Plant response rating, Goosegrass (goosegrass; Rate 250 g/ha): 100
Plant response rating, Goosegrass (goosegrass; Rate 500 g/ha): 100
Plant response rating, Purple nutsedge (purple nutsedge; [1]): 0
Plant response rating, Purple nutsedge (purple nutsedge; [2]): 0
Purple nutsedge plant response rating (purple nutsedge; [3]): 0
Purple nutsedge plant response rating (purple nutsedge; [4]): 0
Plant response rating, Purple nutsedge (purple nutsedge; Rate 250 g/ha): 0
Plant response rating, Purple nutsedge (purple nutsedge; Rate 500 g/ha): 75
Plant response rating, C. ragweed (common ragweed; [1]): 0
Plant response rating, C. ragweed (common ragweed; [2]): 0
Plant response rating, C. ragweed (common ragweed; [3]): 0
Plant response rating, C. ragweed (common ragweed; [4]): 0
Plant response rating, C. ragweed (common ragweed; Rate 250 g/ha): 0
Plant response rating, C. ragweed (common ragweed; Rate 500 g/ha): 0
Plant response rating, Tall Mallow (tall mallow; [1]): 0
Plant response rating, Tall Mallow (tall mallow; [2]): 0
Tall Mallow plant response rating (tall mallow; [3]): 0
Plant response rating, Tall Mallow (tall mallow; [4]): 40
Tall Mallow plant response rating (tall mallow; [4]): 45
Plant response rating, Tall Mallow (tall mallow; Rate 250 g/ha): 75
Plant response rating, Tall Mallow (tall mallow; Rate 500 g/ha): 75
Plant response rating, Com. groundsel (common groundsel; [1]): 0
Plant response rating, Com. groundsel (common groundsel; [2]): 0
Plant response rating, Com. groundsel (common groundsel; [3]): 0
Plant response rating, Com. groundsel (common groundsel; [4]): 0
Plant response rating, Com. groundsel (common groundsel; Rate 250 g/ha): 0
Plant response rating, Com. groundsel (common groundsel; Rate 500 g/ha): 80
Plant response rating, Dallisgrass (dallisgrass; [1]): 60
Plant response rating, Dallisgrass (dallisgrass; [2]): 98
Plant response rating, Dallisgrass (dallisgrass; [3]): 98
Plant response rating, Dallisgrass (dallisgrass; [4]): 100
Plant response rating, Dallisgrass (dallisgrass; Rate 250 g/ha): 100
Plant response rating, Dallisgrass (dallisgrass; Rate 500 g/ha): 100
Plant response rating, Spanishneedles (Spanishneedles; [1]): 0
Plant response rating, Spanishneedles (Spanishneedles; [2]): 0
Spanishneedles plant response rating (Spanishneedles; [3]): 0
Spanishneedles plant response rating (Spanishneedles; [4]): 0
Plant response rating, Spanishneedles (Spanishneedles; Rate 500 g/ha): 0
Plant response rating Johnsongrass (Johnson grass; [1]): 0
Plant response rating Johnsongrass (Johnson grass; [2]): 0
Plant response rating Johnsongrass (Johnson grass; [3]): 0
Plant response rating Johnsongrass (Johnson grass; [4]): 20
Plant response rating Johnsongrass (Johnson grass; Rate 250 g/ha): 75
Plant response rating Johnsongrass (Johnson grass; Rate 500 g/ha): 90
Plant response rating Large crabgrass (large crabgrass; [1]): 40
Plant response rating Large crabgrass (large crabgrass; [2]): 98
Plant response rating Large crabgrass (large crabgrass; [3]): 100
Plant response rating Large crabgrass (large crabgrass; [4]): 100
Plant response rating Large crabgrass (large crabgrass; Rate 250 g/ha): 100
Plant response rating Large crabgrass (large crabgrass; Rate 500 g/ha): 100
Plant response rating, Bermudagrass (bermuda-grass; [1]): 85
Plant response rating, Bermudagrass (bermuda-grass; [2]): 98
Plant response rating, Bermudagrass (bermuda-grass; [3]): 98
Plant response rating, Bermudagrass (bermuda-grass; [4]): 100
Plant response rating, Bermudagrass (bermuda-grass; Rate 250 g/ha): 100
Plant response rating, Bermudagrass (bermuda-grass; Rate 500 g/ha): 100
Plant response rating, Sandbur (sandbur; [1]): 0
Plant response rating, Sandbur (sandbur; [2]): 0
Sandbur plant response rating (sandbur; [3]): 0
Sandbur plant response rating (sandbur; [4]): 0
Plant response rating, Sandbur (sandbur; Rate 250 g/ha): 98
Plant response rating, Sandbur (sandbur; Rate 500 g/ha): 100
Plant response rating, Itchgrass (itchgrass; [1]): 0
Plant response rating, Itchgrass (itchgrass; [2]): 0
Plant response rating, Itchgrass (itchgrass; [3]): 20
Plant response rating, Itchgrass (itchgrass; [4]): 20
Plant response rating, Itchgrass (itchgrass; Rate 250 g/ha): 85
Plant response rating, Itchgrass (itchgrass; Rate 500 g/ha): 85
